Series [1] concerns Plasmodium vinckei, petterei or chabaudi. Nature of the series: Therapeutic index in infected mice (antimalaria activity compared with semi-chronic toxicity). As to conditions: i.p. or s.c., twice a day for four days, ratio of activity over toxicity (LD50). In kind it is in vivo. Here is the method: (§1) In order to evaluate the therapeutic index of the different products, the activity of these products was tested in vivo and compared with […] toxicity in animals. This activity was measured using the test described by PETERS W. (Chemotherapy and Drug resistance in Malaria, 1970). A compound was administered for four consecutive days to mice previously infected with Plasmodium vinckei, petterei or chabaudi. The said compound was dissolved in a 0.9% NaCl solution. The preparations were thus administered intraperitoneally or subcutaneously in male Swiss mice infected by intravenous injection of Plasmodium petterei or Plasmodium chadaudi (10^6 infected cells). The compound was administered twice a day for four consecutive days, the first injection being performed two hours after the infestation and the second, 10 hours later. The parasitemia was determined on blood smears the day after the end of treatment. Toxicity was measured in vivo following the same schedule, the animals having received, under the same administration conditions as above, two injections per day for four days (semi-chronic toxicity). The results are expressed in lethal dose 50 (LD50), i.e. the dose causing death in 50% of the animals.
(§2) The results of these trials are summarized in Table I, below, and expressed as therapeutic index, or the ratio of activity over toxicity measured under the identical conditions described above.

In series [2] the test system is Babesia bovis, Babesia canis. Nature of the series: In vitro antibabesia activity, (3H) hypoxanthine incorporation. The class given is cell-based. As to conditions: score from ED50 of (3H) hypoxanthine incorporation. An excerpt:
The screening process for antimalaria activity, based on parasite incorporation of (^3 H) hypoxanthine was used to test the antimetabolic activity of such components against Babesia bovis, Babesia canis. A tight relationship was found between the rate of (^3 H) hypoxanthine incorporation using standard measurements and the percentage of parasitized cells determined by microscopy. […] The score was ++ for the same activity at a concentration of 0.01 to 0.1 micromoles and finally + for a concentration under or equal to 1 micromole.

A short description of series [3]: Therapeutic index in infected mice (antimalaria activity compared with semi-chronic toxicity). In kind it is in vivo. As to conditions: mouse, in vivo, i.p. or s.c., twice a day for four days, ratio of activity over toxicity (LD50). Here is the method:
as §1, §2

For series [4], the system named is P. falciparum (FVO isolate). Nature of the series: Antimalaria activity of G25 in Aotus lemurinus monkey infected by P. falciparum FVO isolate. In kind it is in vivo. An excerpt: Besides chimpanzees, only two South American monkey species, Aotus and Saimiri seirius, can be infected by P. falciparum. Currently, infection of Aotus monkeys with the human parasite is the best, and quasi-unique, model for evaluating therapeutic or vaccinal interventions against malaria (Collins W. E., Gallaud C. G., Sullivan J. S., and Morris C. L., "Selections of different strains of Plasmodium falciparum for testing blood stages in Aotus nancymal monkeys" An. J. Trop. Med. Hyg., 1994, 51 (2) 224-232).
The antimalaria activity was thus evaluated in the Aotus lemurinus monkey infected by the FVO (falciparum Vietnam Oaknoll) isolate of P. falciparum. This isolate is chloroquine-resistant and inevitably lethal for Aotus monkeys at the "Fundacion Centro de Primates" at the University del Valle, Cali, Colombia.
Treatment with G25 (dissolved in 0.9% NaCl) was initiated when the parasitemia reached 5.6%; 16 doses (0.2 mg/kg b.i.d. for 8 days) were given. […] The parasitemia in a monkey treated by combination sulfadoxine/pyrimethamine (FANSIDAR) is given for comparison.
In all, 15 monkeys were infected, then treated with G25 given by intramuscular injections at doses ranging from 0.010 to 0.2 mg/kg.

The nature of series [5]: Maximal tolerable dose and therapeutic index in the monkey. Conditions: in vivo.

In the case of `CCC[N+](CCC)(CCC)CCCCCCCCCCCCCCCC[N+](CCC)(CCC)CCC.[Br-].[Br-]` [EXAMPLE 9, N,N,N,N',N',N'-hexapropyl-1,16-hexadecanediaminium dibromide], in series [1], the Therapeutic index came out at 36. Moreover, in series [2], the “Antibabesia activity at 10 millimoles” value is listed as “+++ (a 50% inhibition of (^3 H) hypoxanthine incorporation (ED50), these molecules having a concentration less than or equal to 0.01 micromoles)”.
Regarding `CCC[N+](CCC)(CCC)CCCCCCCCCCCCCCCC[N+](CCC)(CCC)CCC.[Br-].[Br-]` [EXAMPLE 12, N,N,N,N',N',N'-hexapropyl-1,16-hexadecanediaminium dibromide], in series [1], the Therapeutic index came to 11. The “Antibabesia activity at 10 millimoles” value in series [2] is “++ (the same activity at a concentration of 0.01 to 0.1 micromoles)”.
`C[N+]1(CCCCCCCCCCCCCC[N+]2(C)CCCC2CO)CCCC1CO` (centres unmarked) [EXAMPLE 18, 1,1'-(1,14-tetradecanediyl)bis(2-hydroxymethl-1-methylpyrrolidium) dibromide]: the Therapeutic index in series [1] stood at 22. Further, the “Antibabesia activity at 10 millimoles” value in series [2] is given as “+++ (a 50% inhibition of (^3 H) hypoxanthine incorporation (ED50), these molecules having a concentration less than or equal to 0.01 micromoles)”.
Turning to `C[N+]1(CCCCCCCCCCCCCCCC[N+]2(C)CCCC(CO)C2)CCCC(CO)C1` (centres unmarked) [EXAMPLE 20], the Therapeutic index in series [1] was determined as 17. For the same compound, the “Antibabesia activity at 10 millimoles” value in series [2] was “+++ (a 50% inhibition of (^3 H) hypoxanthine incorporation (ED50), these molecules having a concentration less than or equal to 0.01 micromoles)”.
On to `CCC[N+](CCC)(CCO)CCCCCCCCCCCCCCCC[N+](CCC)(CCC)CCO.[Br-].[Br-]` [EXAMPLE 29, N,N'-di-(2-hydroxyethyl)-N,N,N',N'-tetrapropyl-1,16 hexadecane diaminium dibromide], for which the selectivity ratio in series [3] worked out at 12. Besides, the “Antibabesia activity at 10 millimoles” value in series [2] is on record as “++ (the same activity at a concentration of 0.01 to 0.1 micromoles)”.
For `CCC[N+](CCC)(CCO)CCCCCCCCCCCCCCCCCCCC[N+](CCC)(CCC)CCO.[Br-].[Br-]` [EXAMPLE 30, N,N'-di(2-hydroxyethyl)-N,N,N',N'-tetrapropyl-1,20-eicosanediaminium dibromide], the selectivity ratio in series [3] is 55. Also, the “Antibabesia activity at 10 millimoles” value in series [2] is recorded as “+++ (a 50% inhibition of (^3 H) hypoxanthine incorporation (ED50), these molecules having a concentration less than or equal to 0.01 micromoles)”.
What is called MTD is the highest dose tested that stayed within the study's limit of toxicity. Take `C[N+]1(CCCCCCCCCCCCCCCC[N+]2(C)CCCC2)CCCC1` [Example G25]: in series [4] (FVO isolate, 0.2 mg/kg b.i.d. for 8 days, treatment started at 5.6% parasitemia), the Decline in parasitemia result is reported as “decline in parasitemia was evident at the second dose”. Moreover, the minimal effective dose in series [4] (Plasmodium falciparum, in Primates, im, 4380 h, intramuscular, 6 months follow-up, read-out: Lowest dose with complete cure (validated by PCR), no recurrences) amounted to 0.03 mg/kg. Moreover, in series [4] (intramuscular, 0.01 mg/kg), the “Activity at 0.01 mg/kg” value is on record as “active (parasite clearance) but did not lead to complete cure (recurrence observed)”. In series [5], this compound displayed an MTD of about 1.5 mg/kg. For the same compound, the selectivity ratio in series [5] (read-out: therapeutic index (LD50/ED50) in the monkey) is over 50.

For the origin of these results see patent US6096788A, “Antimalaria and antibabesiosis agents and pharmaceutical compositions containing such agents” (priority 1996, dated 2000).
